Test results: patent US5614555A, “Amidinophenol derivatives” (Ono Pharmaceutical Co., Ltd., priority 1992, dated 1997)
Counter-ions that a name gives are not always drawn.

What was measured:
[1] = target: T1, PLA2 (derived from hog pancreas) (Sus scrofa, UniProt P00592); experiment: Inhibitory activity on PLA2; format: biochemical; conditions: pH7.5, 10PY-PC substrate, fluorescence Ex=345 nm, Em=396 nm
T1 construct: from tissue; host or cells: hog pancreas
Procedure: A reaction solution including 50 mM tris-HCl buffer (pH7.5, 874 μl; containing 100 mM sodium chloride, 1 mM EDTA), 1M calcium chloride (6 μl), 1% bovine serum albumin (10 μl) and 2.5 mM 10PY-PC (10 μl), was prepared. To the solution were added a test compound in various concentration or water (50 μl), and a solution of 10 mU/ml PLA2 (derived from hog pancreas)(50 μl). The appearance of fluorescence was measured (Ex=345 nm, Em=396 nm). Percentage (%) of the strength of fluorescence in the presence of a test compound was calculated when the strength of that in the absence thereof was regarded as 100%, and therefrom IC50 value was calculated.
10PY-PC represents 3'-palmitoyl-2-(1 -pyrenedecanoyl)-L-α-phosphatidycholine, […]

[2] = target: T2, trypsin (derived from bovine pancreas) (Bos taurus, UniProt P00760); experiment: Inhibitory activity on trypsin; format: biochemical; conditions: pH8.0, preincubated one minute at 30° C., BAPNA substrate, 30 min, absorbance at 405 nm
T2 construct: from tissue; host or cells: bovine pancreas
T2 sequence (P00760 24-246): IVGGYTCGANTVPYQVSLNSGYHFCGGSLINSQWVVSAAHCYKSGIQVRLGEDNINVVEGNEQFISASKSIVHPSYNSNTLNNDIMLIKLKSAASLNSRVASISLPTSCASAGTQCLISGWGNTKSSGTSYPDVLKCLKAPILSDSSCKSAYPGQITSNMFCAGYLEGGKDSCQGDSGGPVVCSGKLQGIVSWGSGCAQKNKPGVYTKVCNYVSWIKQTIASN
Procedure: To a mixture of a 0.2M HEPES.sodium hydroxide buffer solution (pH8.0, 100 μl ) and distilled water (640 μl), were added a test compound in various concentration or water (10 μl), and a solution of 80 mU/ml trypsin (derived from bovine pancreas) (50 μl) and then the mixture was preincubated for one minute at 30° C. To the solution thus obtained was added 2.5 mM BAPNA (200 μl) and the mixture was incubated for 30 min. The absorbance at 405 nm was measured. Percentage (%) of the absorbance in the presence of a test compound was calculated when the absorbance in the absence thereof was regarded as 100%, and therefrom IC50 value was calculated.
HEPES represents 4-(2-hydroxyethyl)-1-piperazineethanesulfonic acid, and
BAPNA represents a-N-benzoyl-DL-arginine-p-nitroanilide hydrochloride.

PLA2 = conditions: Japan. J. Pharmacol., 52, 23-34, 1990; cited from earlier work

T1 sequence (P00592 23-146): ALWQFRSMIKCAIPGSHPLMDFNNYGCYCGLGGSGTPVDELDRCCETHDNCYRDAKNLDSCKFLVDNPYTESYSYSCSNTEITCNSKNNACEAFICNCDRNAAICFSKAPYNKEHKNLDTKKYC

CCOC(=O)CN(Cc1ccccc1)C(=O)/C(C)=C/c1ccc(C(=O)Oc2ccc(C(=N)N)cc2)cc1 [Example 1, p-(p-Amidinophenoxycarbonyl)-α-methylcinnamic acid N-ethoxycarbonylmethyl-N-phenylmethylamide hydrochloride]
IC50 [1]: 4800 nM
IC50 [2]: 140 nM

CCOC(=O)CN(C(=O)/C=C/c1ccc(C(=O)Oc2ccc(C(=N)N)cc2)cc1)c1ccccc1 [Example 2(a), p-(p-amidinophenoxycarbonyl)cinnamic acid-N-phenyl-N-ethoxycarbonylmethyl amidehydrochloride]
IC50 [1]: 15000 nM
IC50 [2]: 140 nM

N=C(N)Nc1ccc(C(=O)Oc2ccc3cc(C(=N)N)ccc3c2)cc1 [nafamostat mesilate]
inhibitory activity on PLA2 (in words) (PLA2): having an inhibitory activity on PLA2

CCOC(=O)CN(C(=O)c1ccc(C(=O)Oc2ccc(C(=N)N)cc2C(=O)OC)cc1)c1ccccc1 [1(p), p-(p-amidino-o-methoxycarbonyl-phenoxycarbonyl)-benzoic acid N-phenyl-N-ethoxy-carbonylmethyl-amide acetate]
IC50 [2]: 150 nM

C=CCN(CC(=O)O)C(=O)/C(C)=C/c1ccc(C(=O)Oc2ccc(C(=N)N)cc2)cc1 [Example 4, p-(p-Amidinophenoxycarbonyl)-α-methylcinnamic acid N-carboxymethyl-N-allylamide methanesulfonate]
IC50 [2]: 100 nM

CCOC(=O)CC[C@H](NC(=O)/C(C)=C/c1ccc(C(=O)Oc2ccc(C(=N)N)cc2)cc1)C(=O)OCC [1(d), p-(p-amidino-phenoxycarbonyl)-α-methylcinnamicacid N-[1-(S),3-bis-(ethoxycarbonyl)]-propylamidehydrochloride]
IC50 [1]: 63000 nM
IC50 [2]: 130 nM

N=C(N)c1ccc(OC(=O)c2ccc(C(=O)N3CCC[C@@H]3C(=O)OCc3ccccc3)cc2)cc1 [2(f), p-(p-amidinophenoxycarbonyl)benzoic acid-N-(2-(R)-benzyloxycarbonyl)pyrrolidinylamideacetic acid]
IC50 [1]: 32000 nM
IC50 [2]: 140 nM

CCOC(=O)CN(C(=O)/C(C)=C/c1ccc(C(=O)Oc2ccc(C(=N)N)cc2)cc1)c1ccc(F)cc1 [1(g), p-(p-amidino-phenoxycarbonyl)-α-methylcinnamicacid N-(p-fluoro-phenyl)-N-ethoxy-carbonylmethyl-amidemethanesulfonate]
IC50 [1]: 5300 nM
IC50 [2]: 140 nM

CCOC(=O)CN(C(=O)/C=C(\C)c1ccc(C(=O)Oc2ccc(C(=N)N)cc2)cc1)c1ccccc1 [1(k), p-(p-amidino-phenoxycarbonyl)-β-methylcinnamicacid N-phenyl-N-ethoxycarbonyl-methylamidehydrochloride]
IC50 [1]: 3100 nM
IC50 [2]: 220 nM

N=C(N)c1ccc(OC(=O)c2ccc(C(=O)N3CCN(Cc4ccccc4)CC3)cc2)cc1 [1(t), p-(p-amidino-phenoxycarbonyl)-benzoic acid N'-phenylmethyl-piperazinylamidedihydrochloride]
IC50 [1]: 24000 nM
IC50 [2]: 220 nM

CN(C)C(=O)COC(=O)Cc1ccc(OC(=O)c2ccc(NC(=N)N)cc2)cc1 [camostat mesylate]
inhibitory activity on PLA2 (in words) (PLA2): having an inhibitory activity on PLA2

C=CCN(CC(=O)OCC)C(=O)/C(C)=C/c1ccc(C(=O)Oc2ccc(C(=N)N)cc2)cc1 [1(i), p-(p-amidino-phenoxycarbonyl)-α-methylcinnamicacid N-allyl-N-ethoxycarbonylmethylamideacetate]
IC50 [1]: 28000 nM
IC50 [2]: 130 nM
